The structures appear in SMILES notation.

Data on six molecules can be found in PMC5340297 (Bioorganic & medicinal chemistry letters, 2016).

For data set [1], the target named is T1, rM4 (Rattus norvegicus, UniProt P08485).
T1 sequence (P08485 1-478): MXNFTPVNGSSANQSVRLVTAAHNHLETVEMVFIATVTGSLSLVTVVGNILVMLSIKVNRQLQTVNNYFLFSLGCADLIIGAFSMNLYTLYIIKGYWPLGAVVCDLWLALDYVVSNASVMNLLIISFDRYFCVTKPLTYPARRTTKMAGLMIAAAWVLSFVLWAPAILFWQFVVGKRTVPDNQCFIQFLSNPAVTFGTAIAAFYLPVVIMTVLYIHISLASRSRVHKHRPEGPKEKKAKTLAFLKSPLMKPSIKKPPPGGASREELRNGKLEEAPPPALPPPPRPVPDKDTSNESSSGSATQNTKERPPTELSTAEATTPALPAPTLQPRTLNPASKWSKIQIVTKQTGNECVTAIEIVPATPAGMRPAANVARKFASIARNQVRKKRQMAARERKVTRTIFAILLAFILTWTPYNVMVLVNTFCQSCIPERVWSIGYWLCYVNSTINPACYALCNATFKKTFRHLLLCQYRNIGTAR
The data set can be described thus: Calcium mobilization assay with rM4/Gqi5-CHO cells, EC20 acetylcholine. Format: cell-based. The following applies: 9a vs 6. Background: Calcium assays in cells follow changes in intracellular calcium, usually with a dye or a luminescent sensor.

A short description of data set [2]: Rat brain:plasma partition coefficients. Format: in vivo. The following applies: 0.25 hr after IV cassette dose (0.20-0.25 mg/kg), male SD rat, n=1.
Data set [3] concerns the target Cytochrome P450 2D6 (Homo sapiens, UniProt P10635). The data set can be described thus: Cytochrome P450 inhibition, 2D6. Format: in vitro ADME.
Data set [4] relates to 68 GPCRs, ion channels and transporter. In words: Eurofin Lead Profiling radioligand binding panel. To be noted: 10 μM.
Data set [5] concerns the target hCav1 2 (Homo sapiens, UniProt Q13936). The data set can be described thus: Off-target full CRC, hCav1 2. It is filed as binding.
Data set [6] can be described thus: In vitro clearance, rat. To be noted: predicted.
Data set [7] relates to rat M1-3,5. In words: Muscarinic subtype selectivity, rat M1-3,5. The following applies: read-out: EC50 at rat M1-3,5; no activity. It is filed as cell-based.
Data set [8] relates to amphetamine-induced hyperlocomotion. To be noted: rat, 0.75 mg/kg amphetamine s.c., n = 7-8 per dose group.
Data set [9] has as its system human M1-3,5. In words: Muscarinic subtype selectivity, human M1-3,5. Format: cell-based. To be noted: read-out: EC50 at human M1-3,5; no activity.
The target in data set [10] is T2, 5-HT3 (Homo sapiens, UniProt P46098).
T2 sequence (P46098 24-478): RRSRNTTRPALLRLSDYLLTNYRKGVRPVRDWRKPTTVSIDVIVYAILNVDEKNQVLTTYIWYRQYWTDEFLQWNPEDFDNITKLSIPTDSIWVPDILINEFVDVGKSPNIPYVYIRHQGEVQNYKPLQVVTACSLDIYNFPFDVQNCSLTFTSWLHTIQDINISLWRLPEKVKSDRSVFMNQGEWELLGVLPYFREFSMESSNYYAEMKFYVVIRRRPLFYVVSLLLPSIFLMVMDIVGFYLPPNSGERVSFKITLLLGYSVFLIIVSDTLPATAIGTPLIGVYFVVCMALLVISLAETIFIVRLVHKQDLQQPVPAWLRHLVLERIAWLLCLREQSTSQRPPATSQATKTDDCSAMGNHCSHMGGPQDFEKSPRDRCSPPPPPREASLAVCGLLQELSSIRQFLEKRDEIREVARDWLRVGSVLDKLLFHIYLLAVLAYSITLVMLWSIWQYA
In words: Off-target full CRC, 5-HT3. Format: binding.

A short description of data set [11]: In vitro clearance, human. To be noted: predicted.
The target of data set [12] is SERT (Homo sapiens, UniProt P31645). In words: Off-target full CRC, SERT. Format: binding.
Chain of SERT (P31645 whole entry, species assumed): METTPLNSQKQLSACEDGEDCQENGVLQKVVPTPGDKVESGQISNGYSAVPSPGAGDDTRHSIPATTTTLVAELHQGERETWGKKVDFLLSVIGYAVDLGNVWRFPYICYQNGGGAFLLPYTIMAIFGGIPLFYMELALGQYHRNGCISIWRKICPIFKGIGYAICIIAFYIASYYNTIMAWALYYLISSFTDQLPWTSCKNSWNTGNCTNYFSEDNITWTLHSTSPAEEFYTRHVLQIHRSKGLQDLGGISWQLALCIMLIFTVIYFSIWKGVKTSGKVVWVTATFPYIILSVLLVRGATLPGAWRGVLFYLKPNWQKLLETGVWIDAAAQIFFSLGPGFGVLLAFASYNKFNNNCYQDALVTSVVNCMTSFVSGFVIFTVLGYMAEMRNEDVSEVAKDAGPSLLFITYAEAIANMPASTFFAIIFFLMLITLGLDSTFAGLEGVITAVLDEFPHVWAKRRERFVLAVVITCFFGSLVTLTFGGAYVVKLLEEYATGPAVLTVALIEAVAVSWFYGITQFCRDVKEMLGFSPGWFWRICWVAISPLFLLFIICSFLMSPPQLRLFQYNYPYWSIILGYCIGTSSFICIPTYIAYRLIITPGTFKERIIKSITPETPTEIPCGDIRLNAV
The target in data set [13] is DAT (Homo sapiens, UniProt Q01959). In words: Off-target full CRC, DAT. Format: binding.
Chain of DAT (Q01959 whole entry, species assumed): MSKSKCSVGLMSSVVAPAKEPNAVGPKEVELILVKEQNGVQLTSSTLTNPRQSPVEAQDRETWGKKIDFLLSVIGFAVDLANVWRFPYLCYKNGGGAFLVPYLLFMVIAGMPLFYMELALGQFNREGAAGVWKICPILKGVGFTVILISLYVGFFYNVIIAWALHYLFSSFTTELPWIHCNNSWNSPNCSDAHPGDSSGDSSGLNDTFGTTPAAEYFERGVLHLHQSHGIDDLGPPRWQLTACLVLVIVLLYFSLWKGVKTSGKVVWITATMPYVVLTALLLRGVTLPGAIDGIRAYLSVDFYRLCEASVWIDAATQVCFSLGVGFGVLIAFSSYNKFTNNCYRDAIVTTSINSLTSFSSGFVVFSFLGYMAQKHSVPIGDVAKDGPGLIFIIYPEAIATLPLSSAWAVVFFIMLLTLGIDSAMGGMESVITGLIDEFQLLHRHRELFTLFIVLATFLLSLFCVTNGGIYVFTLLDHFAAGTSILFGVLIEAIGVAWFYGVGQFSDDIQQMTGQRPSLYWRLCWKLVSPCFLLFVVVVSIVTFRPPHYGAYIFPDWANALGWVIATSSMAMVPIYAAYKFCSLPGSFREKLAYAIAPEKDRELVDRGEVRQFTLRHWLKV
The subject of data set [14] is GABA. In words: Off-target full CRC, GABA. It is filed as binding.
The test system of data set [15] is BDZ. The data set can be described thus: Off-target full CRC, BDZ. It is filed as binding.
In data set [16] the target is Ghrelin receptor (Homo sapiens, UniProt Q92847). In words: Off-target full CRC, Ghrelin receptor. Format: binding.
Chain of Ghrelin receptor (Q92847 whole entry, species assumed): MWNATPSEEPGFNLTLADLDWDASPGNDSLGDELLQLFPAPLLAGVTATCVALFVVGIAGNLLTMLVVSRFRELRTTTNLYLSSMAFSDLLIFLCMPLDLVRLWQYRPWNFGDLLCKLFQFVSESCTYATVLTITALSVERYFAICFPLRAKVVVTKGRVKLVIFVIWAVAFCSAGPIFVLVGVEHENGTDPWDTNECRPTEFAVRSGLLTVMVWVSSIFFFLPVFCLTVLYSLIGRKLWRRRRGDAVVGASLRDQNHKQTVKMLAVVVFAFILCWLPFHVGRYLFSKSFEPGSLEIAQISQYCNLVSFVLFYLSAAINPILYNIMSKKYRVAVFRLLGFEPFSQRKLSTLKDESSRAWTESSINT
For data set [17], the system named is amphetamine-induced hyperlocomotion. To be noted: cited from earlier work.
Data set [18] can be described thus: Free fraction, 6 compared with 2. Format: in vitro ADME. To be noted: 6 vs 2.
The test system of data set [19] is M4. The data set can be described thus: M4 PAM potency, 6 compared with 2. It is filed as cell-based. The following applies: 6 vs 2.

Chain of Cytochrome P450 2D6 (P10635 whole entry): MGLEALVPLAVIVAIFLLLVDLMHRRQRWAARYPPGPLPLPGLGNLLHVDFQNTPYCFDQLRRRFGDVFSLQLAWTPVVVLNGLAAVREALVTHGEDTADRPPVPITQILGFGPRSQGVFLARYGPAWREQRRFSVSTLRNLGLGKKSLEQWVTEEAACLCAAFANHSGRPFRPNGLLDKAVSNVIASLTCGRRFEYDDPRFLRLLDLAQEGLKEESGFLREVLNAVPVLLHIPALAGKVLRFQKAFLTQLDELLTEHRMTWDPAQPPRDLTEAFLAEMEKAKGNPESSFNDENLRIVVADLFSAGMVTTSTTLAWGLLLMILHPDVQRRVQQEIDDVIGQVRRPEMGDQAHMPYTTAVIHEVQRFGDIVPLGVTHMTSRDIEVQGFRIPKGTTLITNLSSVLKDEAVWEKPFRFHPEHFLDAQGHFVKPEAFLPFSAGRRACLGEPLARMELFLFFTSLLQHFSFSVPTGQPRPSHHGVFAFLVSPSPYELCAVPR

`CSc1ccc(CNC(=O)c2sc3nnc(C)c(C)c3c2N)cc1` [9a]: the “Fold increase in rat M4 PAM potency relative to 6” value in data set [1] is roughly 10 fold.
Take `Cc1nnc2sc(C(=O)NCc3ccc(S(=O)(=O)CF)cc3)c(N)c2c1C` [9i]: the “Rat Kp (total brain:plasma partition coefficient)” value in [2] is given as “not detected in the CNS”.
One may read the % inhibition as how much of the control response was suppressed. Read a high % inhibition as a response far below the control. A word on the EC50: it is the concentration giving half of the maximal effect. Take `Cc1nnc2sc(C(=O)NCc3ccc(S(=O)(=O)C(F)F)cc3)c(N)c2c1C` [9j]: the “Inhibition of CYP 2D6 (in words)” value in data set [3] is listed as “weak inhibition”. For the same molecule, the “% inhibition at multiple off-targets in the Eurofin panel” value in [4] was greater than 50%. The “hCav1 2 ligand potency (full CRC)” value in [5] stood at 5.7 µM. For the same molecule, in [6], the “CLHEP, rat” value is listed as 28.1 mL/min/kg. The EC50 in data set [7] and in [9] was greater than 30 µM each time. Also, the “Full dose response AHL, result in words” value in data set [8] is listed as “efficacious in vivo”. In addition, the “5-HT3 ligand potency (full CRC)” value in data set [10] amounted to 1.6 µM. Further, the “CLHEP, human” value in data set [11] is 9.34 mL/min/kg. The “SERT ligand potency (full CRC)” value in data set [12] amounted to 0.6 µM. Also, in data set [13], the “DAT ligand potency (full CRC)” value worked out at 0.175 µM.
For the molecule `Cc1nnc2sc(C(=O)NCc3ccc(S(F)(F)(F)(F)F)cc3)c(N)c2c1C` [9l], the “Inhibition of CYP 2D6 (in words)” value in data set [3] is on record as “weak inhibition”. Also, the “GABA ligand potency (full CRC)” value in data set [14] was found to be 2.1 µM. Further, the “% inhibition at multiple off-targets in the Eurofin panel” value in data set [4] is greater than 50%. In addition, in [15], the “BDZ ligand potency (full CRC)” value amounted to 1.5 µM. Further, in [6], the “CLHEP, rat” value is 40.5 mL/min/kg. In addition, the EC50 in data set [7] and in data set [9] was greater than 30 µM in each case. In data set [8], the “Full dose response AHL, result in words” value is listed as “efficacious in vivo”. For the same molecule, the “Ghrelin receptor ligand potency (full CRC)” value in [16] worked out at 6.5 µM. The “5-HT3 ligand potency (full CRC)” value in data set [10] is 1.5 µM. The “CLHEP, human” value in data set [11] is 15.0 mL/min/kg. For the same molecule, the “SERT ligand potency (full CRC)” value in [12] was 0.52 µM. Further, the “DAT ligand potency (full CRC)” value in data set [13] amounted to 0.15 µM.
Regarding `Cc1nnc2sc(C(=O)NCc3ccc(S(=O)(=O)C(F)(F)F)cc3)c(N)c2c1C` [compound 5], the “% reversal in AHL (previously reported)” value in data set [17] (10 mg/kg p.o.) is 46%. Besides, the “Minimum effective dose (MED) in AHL” value in data set [17] (p.o.) is 3 mg/kg. Further, in [4], the “% inhibition at any of the 68 targets in the Eurofin panel” value is no more than 50%. The “CLHEP, rat” value in data set [6] is 28.4 mL/min/kg. Moreover, the EC50 in [7] and in data set [9] was greater than 30 µM each time. In addition, in data set [11], the “CLHEP, human” value is 10.2 mL/min/kg.
On to `COc1ccc(CNC(=O)c2sc3nnc(C)c(C)c3c2N)cc1` [compound 6], for which, in [18], the “Fold increase of free fraction relative to 2” value is on record as “up to 9 fold”. Further, in data set [19], the “Fold enhancement of M4 PAM potency relative to 2” value is 4 fold.
